Data reported in ChEMBL document CHEMBL1201862, “PubChem BioAssay data set” (2004).
Activity calls are given as the source filed them.

How the values were obtained:
[1] = target: Voltage-gated inwardly rectifying potassium channel KCNH2 (Homo sapiens, UniProt Q12809); settings: Potency;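 also: confirmatory quantitative high-throughput screen measuring inhibition of hERG channel activity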
[2] = target: Delta-type opioid receptor (Homo sapiens, UniProt P41143); test: Counterscreen for agonists of heterodimerization of the mu 1 (OPRM1) and delta 1 (OPRD1) opioid receptors: Luminescence-based cell-based high throughput dose response assay to identify agonists of OPRD1 homodimerization. [Related pubchem assays (depositor defined):AID504326, AID504355, AID504692, AID504904, AID504905]; type: functional
Delta-type opioid receptor, sequence (P41143 whole entry): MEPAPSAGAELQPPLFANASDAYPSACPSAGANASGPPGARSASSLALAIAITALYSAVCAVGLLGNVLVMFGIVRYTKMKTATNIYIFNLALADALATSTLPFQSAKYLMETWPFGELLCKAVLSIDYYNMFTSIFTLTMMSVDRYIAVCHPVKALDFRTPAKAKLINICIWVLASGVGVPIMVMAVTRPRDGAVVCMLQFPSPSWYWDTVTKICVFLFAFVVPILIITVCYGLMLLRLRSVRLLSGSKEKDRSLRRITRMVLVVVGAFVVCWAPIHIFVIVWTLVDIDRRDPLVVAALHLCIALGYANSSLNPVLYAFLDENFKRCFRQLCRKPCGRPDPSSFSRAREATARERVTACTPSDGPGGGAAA

Mu-type opioid receptor = Mu-type opioid receptor (Homo sapiens, UniProt P35372); test: Counterscreen for agonists of heterodimerization of the mu 1 (OPRM1) and delta 1 (OPRD1) opioid receptors: Luminescence-based cell-based high throughput dose response assay to identify agonists of OPRM1 homodimerization.; type: functional;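 also: U2OS cells expressing OPRM1 and beta-arrestin as split beta-galactosidase partners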
Mu-type opioid receptor, sequence (P35372 whole entry): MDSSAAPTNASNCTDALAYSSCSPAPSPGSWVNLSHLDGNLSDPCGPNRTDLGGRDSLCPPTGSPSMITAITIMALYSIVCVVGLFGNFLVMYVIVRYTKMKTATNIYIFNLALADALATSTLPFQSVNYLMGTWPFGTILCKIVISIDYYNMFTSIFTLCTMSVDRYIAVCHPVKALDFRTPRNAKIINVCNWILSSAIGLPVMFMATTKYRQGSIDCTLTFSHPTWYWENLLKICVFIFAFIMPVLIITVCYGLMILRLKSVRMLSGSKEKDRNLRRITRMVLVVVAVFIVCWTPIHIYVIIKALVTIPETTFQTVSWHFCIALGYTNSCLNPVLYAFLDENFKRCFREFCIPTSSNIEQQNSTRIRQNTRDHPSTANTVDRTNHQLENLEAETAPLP

[3] = target: 5-hydroxytryptamine receptor 5A (Homo sapiens, UniProt P47898); test: Counterscreen for agonists of OPRM1-OPRD1 heterodimerization: luminescence-based cell-based high throughput dose response assay to identify agonists of 5-hydroxytryptamine (serotonin) 5A receptor (HTR5A). [Related pubchem assays (depositor defined):AID504326, AID504355, AID504692, AID504904, AID504905]; type: functional
5-hydroxytryptamine receptor 5A, sequence (P47898 whole entry): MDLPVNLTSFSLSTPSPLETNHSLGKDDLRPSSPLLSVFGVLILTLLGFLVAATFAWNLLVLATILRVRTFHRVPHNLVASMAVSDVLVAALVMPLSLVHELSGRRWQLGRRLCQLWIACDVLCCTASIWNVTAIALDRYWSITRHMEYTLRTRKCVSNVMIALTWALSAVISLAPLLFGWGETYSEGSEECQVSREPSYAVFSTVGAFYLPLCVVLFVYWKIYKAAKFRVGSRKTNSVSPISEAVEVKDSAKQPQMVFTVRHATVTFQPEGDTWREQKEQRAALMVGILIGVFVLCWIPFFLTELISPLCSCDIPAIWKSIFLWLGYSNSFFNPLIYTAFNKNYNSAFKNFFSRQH

HeLa = test: ATP-based viability loss in HeLa cells – cell-based, CellTiter-Glo luminescence, cherry-pick samples, cytotoxicity control for MITF activator project, dose response (AID 540259); type: functional; settings: Homo sapiens
Escherichia coli = test: microbe, parasite or virus in culture
[4] = target: T1, Ubiquitin-conjugating enzyme E2 N (Homo sapiens, UniProt P61088); type: functional
T1 sequence (P61088 whole entry): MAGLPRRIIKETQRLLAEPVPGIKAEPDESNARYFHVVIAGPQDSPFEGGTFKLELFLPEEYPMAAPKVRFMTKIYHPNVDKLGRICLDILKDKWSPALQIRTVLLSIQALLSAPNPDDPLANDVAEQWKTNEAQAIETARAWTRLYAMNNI

Bcl-2-related protein A1 = target: T2, Bcl-2-related protein A1 (Mus musculus, UniProt Q07440); type: functional;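 also: confirmatory dose–response counterscreen on Bfl-1, used to check hits from a UBC13 polyubiquitin inhibitor campaign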
T2 sequence (Q07440 whole entry): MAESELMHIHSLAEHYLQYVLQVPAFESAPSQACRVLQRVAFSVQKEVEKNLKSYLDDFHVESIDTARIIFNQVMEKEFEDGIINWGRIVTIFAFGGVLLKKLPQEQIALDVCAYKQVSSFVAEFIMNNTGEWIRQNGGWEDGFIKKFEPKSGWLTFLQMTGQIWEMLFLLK

[5] = target: T3, Endoribonuclease toxin MazF (Escherichia coli K-12, UniProt P0AE70); test: substrate-only fluorescence increase artefacts – biochemical, single-stranded RNase substrate, counter-screen for MazEF activator project, dose response (AID 588502); type: functional
T3 sequence (P0AE70 whole entry): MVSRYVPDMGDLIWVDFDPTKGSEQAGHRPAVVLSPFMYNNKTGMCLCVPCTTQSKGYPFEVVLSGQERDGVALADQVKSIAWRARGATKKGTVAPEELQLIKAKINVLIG

[6] = target: T3, Endoribonuclease toxin MazF; test: activation of MazEF endoribonuclease cleavage – biochemical, fluorescence, single-stranded RNA substrate, uHTS hits, dose response (AID 588481); type: functional
[7] = target: T1, Ubiquitin-conjugating enzyme E2 N; type: functional; remark: listed apart in the source
CAAX prenyl protease 2 [8] = target: T4, CAAX prenyl protease 2 (Homo sapiens, UniProt Q9Y256); test: inhibition of Ras-converting CAAX protease Rce1 – biochemical, yeast membranes, quenched-peptide fluorescence, cherry-pick, dose response (AID 588849)
T4 sequence (Q9Y256 whole entry): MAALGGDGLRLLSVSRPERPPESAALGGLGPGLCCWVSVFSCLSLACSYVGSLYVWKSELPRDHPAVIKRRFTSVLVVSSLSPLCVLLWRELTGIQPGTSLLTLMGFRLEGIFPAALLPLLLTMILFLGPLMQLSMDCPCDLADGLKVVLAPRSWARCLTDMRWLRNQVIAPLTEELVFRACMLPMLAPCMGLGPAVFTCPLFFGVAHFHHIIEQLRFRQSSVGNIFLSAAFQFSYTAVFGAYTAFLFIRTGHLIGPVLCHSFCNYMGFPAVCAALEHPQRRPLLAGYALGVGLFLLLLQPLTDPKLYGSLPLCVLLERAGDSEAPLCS

[9] = M. tuberculosis H37Rv growth inhibitors, H37Rv strain (AID 1626); type: functional
CAAX prenyl protease 2 [10] = target: T5, CAAX prenyl protease 2 (Saccharomyces cerevisiae S288c, UniProt Q03530); type: biochemical
T5 sequence (Q03530 whole entry): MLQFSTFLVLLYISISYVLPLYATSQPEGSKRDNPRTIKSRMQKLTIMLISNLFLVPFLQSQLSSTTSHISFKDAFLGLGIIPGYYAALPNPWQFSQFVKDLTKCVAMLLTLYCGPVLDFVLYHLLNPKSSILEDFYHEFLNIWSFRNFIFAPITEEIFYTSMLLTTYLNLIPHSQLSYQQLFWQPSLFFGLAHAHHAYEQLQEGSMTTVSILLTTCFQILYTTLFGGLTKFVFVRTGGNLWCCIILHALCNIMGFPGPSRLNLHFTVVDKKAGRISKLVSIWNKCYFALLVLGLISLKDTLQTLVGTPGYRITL

[11] = target: T6, RNA-binding protein pos-1 (Caenorhabditis elegans, UniProt G5EF15); test: disruptors of C. elegans POS-1 RNA interaction – biochemical, fluorescence polarization, dose response (AID 1964);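 also: purified POS-1 fused to maltose binding protein made in E. coli; potency of compounds blocking POS-1 binding to fluorescent RNA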
T6 sequence (G5EF15 whole entry): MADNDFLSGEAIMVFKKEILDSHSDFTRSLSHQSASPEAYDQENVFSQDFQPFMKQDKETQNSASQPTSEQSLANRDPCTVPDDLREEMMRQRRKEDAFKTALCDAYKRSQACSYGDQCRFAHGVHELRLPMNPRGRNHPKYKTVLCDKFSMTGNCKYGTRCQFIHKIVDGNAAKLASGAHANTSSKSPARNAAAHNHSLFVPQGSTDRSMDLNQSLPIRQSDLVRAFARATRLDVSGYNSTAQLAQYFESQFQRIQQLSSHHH

[12] = target: T7, Zinc finger protein mex-5 (Caenorhabditis elegans, UniProt Q9XUB2); test: potency of MEX-5 RNA-binding blockers – biochemical, C. elegans, fluorescence polarization, dose response (AID 1960)
T7 sequence (Q9XUB2 whole entry): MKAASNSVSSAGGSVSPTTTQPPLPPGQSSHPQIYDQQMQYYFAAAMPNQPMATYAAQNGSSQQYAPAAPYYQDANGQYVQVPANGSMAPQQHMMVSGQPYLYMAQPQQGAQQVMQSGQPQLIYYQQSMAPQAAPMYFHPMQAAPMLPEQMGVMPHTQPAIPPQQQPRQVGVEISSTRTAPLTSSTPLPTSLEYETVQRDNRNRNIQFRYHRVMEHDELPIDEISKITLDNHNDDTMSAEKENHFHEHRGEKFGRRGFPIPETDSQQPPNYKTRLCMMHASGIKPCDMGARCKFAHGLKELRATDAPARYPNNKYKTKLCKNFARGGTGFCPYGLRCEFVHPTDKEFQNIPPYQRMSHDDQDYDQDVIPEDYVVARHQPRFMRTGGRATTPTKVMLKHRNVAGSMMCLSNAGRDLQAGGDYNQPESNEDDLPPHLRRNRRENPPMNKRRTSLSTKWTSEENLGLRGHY

[13] = target: T8, Rac GTPase-activating protein 1 (Homo sapiens, UniProt Q9H0H5); test: blockers of MgcRacGAP-driven Rac1 GTP hydrolysis – biochemical, ADP Hunter fluorescence, primary and confirmatory, confirmation (AID 624330); type: functional
T8 sequence (Q9H0H5 whole entry): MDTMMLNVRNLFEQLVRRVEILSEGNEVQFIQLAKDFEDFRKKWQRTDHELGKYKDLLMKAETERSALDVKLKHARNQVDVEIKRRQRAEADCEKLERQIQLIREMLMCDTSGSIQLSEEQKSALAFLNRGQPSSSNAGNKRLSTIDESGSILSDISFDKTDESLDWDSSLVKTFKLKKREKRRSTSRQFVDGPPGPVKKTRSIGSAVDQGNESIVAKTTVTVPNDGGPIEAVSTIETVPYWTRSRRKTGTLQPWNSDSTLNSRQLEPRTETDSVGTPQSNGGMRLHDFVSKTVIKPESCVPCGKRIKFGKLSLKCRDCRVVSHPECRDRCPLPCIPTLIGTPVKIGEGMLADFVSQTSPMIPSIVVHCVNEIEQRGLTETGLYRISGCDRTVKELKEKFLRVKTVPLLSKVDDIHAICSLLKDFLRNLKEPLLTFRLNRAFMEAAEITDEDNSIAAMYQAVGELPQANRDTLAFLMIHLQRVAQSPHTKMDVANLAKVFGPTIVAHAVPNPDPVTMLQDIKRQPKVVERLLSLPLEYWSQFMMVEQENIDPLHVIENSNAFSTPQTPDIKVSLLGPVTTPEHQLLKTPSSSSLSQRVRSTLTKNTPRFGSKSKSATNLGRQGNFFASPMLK

Cytochrome P450 3A4 = Cytochrome P450 3A4 (Homo sapiens, UniProt P08684); settings: Potency;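 also: confirmatory qHTS run detecting inhibitors and substrates of CYP3A4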
Cytochrome P450 3A4, sequence (P08684 whole entry): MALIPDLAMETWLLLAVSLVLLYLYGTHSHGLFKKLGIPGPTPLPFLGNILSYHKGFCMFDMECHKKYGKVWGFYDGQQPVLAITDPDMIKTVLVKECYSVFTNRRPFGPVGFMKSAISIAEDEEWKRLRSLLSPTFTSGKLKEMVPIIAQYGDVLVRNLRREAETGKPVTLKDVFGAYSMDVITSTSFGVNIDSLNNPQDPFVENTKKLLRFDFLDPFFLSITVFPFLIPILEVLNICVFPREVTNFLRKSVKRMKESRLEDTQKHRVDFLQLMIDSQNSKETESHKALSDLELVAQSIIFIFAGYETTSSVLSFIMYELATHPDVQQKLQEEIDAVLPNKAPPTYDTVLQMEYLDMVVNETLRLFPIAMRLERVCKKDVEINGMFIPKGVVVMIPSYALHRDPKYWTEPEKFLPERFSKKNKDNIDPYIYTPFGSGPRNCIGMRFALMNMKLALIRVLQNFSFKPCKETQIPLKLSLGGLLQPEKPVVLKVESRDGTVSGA

Nonstructural protein 1 = Nonstructural protein 1 (Influenza A virus, UniProt Q194T2); type: functional, Influenza A virus (A/California/07/2009(H1N1))
Nonstructural protein 1, sequence (Q194T2 whole entry): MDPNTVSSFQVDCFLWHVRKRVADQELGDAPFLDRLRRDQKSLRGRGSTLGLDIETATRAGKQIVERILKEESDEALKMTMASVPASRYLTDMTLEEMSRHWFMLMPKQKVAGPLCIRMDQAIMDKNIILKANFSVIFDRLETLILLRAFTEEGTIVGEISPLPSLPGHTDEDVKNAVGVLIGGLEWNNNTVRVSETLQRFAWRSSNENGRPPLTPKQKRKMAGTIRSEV

[14] = target: T9, Short transient receptor potential channel 4 (Mus musculus, UniProt Q9QUQ5); test: calcium entry via TRPC4 opening agents – cell-based, HEK293 TRPC4/mu-opioid, Fluo-4 calcium, dose response (AID 434937); type: functional
T9 sequence (Q9QUQ5 whole entry): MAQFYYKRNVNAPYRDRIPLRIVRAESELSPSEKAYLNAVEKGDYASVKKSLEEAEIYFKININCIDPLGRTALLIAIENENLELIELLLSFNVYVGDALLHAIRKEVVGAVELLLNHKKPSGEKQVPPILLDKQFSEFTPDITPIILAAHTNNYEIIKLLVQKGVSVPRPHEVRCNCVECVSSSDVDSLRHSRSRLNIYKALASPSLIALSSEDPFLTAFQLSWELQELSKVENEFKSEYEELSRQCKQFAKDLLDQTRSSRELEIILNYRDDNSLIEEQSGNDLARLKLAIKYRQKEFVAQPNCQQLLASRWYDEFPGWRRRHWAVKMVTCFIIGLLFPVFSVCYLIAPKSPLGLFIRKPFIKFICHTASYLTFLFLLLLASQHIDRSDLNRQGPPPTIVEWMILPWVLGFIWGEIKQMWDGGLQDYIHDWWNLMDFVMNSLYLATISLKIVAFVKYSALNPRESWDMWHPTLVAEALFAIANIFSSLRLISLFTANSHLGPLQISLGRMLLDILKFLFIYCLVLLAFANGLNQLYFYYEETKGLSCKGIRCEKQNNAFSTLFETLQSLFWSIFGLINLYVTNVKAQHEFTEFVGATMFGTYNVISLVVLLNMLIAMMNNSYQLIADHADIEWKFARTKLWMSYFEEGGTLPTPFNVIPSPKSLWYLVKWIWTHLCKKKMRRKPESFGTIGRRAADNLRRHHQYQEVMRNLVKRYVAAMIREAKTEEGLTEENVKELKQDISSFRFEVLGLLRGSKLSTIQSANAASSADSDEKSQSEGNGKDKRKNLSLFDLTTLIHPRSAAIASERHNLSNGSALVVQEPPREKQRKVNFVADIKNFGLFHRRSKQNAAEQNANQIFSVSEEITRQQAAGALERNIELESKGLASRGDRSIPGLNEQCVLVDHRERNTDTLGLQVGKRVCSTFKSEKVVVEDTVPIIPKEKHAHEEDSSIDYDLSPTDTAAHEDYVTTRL

Voltage-gated inwardly rectifying potassium channel KCNH2, sequence (Q12809 whole entry): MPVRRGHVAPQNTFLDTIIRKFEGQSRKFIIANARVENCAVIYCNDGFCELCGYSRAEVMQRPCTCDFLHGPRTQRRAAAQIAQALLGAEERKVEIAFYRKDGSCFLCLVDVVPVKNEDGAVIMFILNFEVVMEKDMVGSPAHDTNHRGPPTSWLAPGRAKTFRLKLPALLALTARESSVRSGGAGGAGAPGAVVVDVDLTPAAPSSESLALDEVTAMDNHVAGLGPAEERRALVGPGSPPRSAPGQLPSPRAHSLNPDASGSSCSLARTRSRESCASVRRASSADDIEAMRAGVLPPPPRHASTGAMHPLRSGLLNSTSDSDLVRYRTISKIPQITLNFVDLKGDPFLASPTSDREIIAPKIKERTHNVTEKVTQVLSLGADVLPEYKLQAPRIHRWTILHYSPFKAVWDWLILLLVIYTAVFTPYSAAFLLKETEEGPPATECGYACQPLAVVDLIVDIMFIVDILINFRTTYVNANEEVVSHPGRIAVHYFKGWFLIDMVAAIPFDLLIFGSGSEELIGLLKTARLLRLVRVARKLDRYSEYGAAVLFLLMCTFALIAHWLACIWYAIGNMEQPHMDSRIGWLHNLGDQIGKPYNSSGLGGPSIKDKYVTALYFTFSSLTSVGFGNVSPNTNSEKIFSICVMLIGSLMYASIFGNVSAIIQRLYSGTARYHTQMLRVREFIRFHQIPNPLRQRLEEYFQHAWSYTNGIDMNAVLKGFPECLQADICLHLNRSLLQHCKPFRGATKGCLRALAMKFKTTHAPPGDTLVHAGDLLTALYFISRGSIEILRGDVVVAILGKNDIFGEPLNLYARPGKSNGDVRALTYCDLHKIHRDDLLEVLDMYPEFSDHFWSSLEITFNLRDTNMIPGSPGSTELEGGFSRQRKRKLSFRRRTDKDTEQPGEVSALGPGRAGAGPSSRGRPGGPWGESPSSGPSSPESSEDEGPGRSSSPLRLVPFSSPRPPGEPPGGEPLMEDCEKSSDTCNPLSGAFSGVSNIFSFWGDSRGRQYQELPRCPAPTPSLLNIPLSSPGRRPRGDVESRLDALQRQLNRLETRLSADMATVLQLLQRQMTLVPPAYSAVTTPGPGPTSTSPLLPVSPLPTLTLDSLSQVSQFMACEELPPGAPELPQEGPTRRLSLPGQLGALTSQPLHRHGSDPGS

## CN(C(=O)Cc1ccc(Cl)c(Cl)c1)C(CN1CCCC1)c1cccc(OCC(=O)O)c1 (centres undefined)
[1]
  AC50: 35.5 µM (inconclusive)
[2]
  EC50: 17.2 µM (inactive)
Mu-type opioid receptor
  EC50: > 92.5 µM (inactive)
[3]
  EC50: > 92.5 µM (inactive)

## Cc1nnc2sc(-c3ccc(N(C)C)cc3)nn2c1=O
HeLa
  AC50: 55.2 µM (active)

## O=C(CSc1nccn1Cc1ccccc1)NC1CCCC1
Escherichia coli
  AC50: 25.5 µM (active)

## c1ccc(-n2ncc3c(NCc4cccs4)ncnc32)cc1
HeLa
  AC50: 55.5 µM (active)

## COc1cc(C2C(C#N)=C(N)Oc3[nH]nc(-c4cccs4)c32)cc(OC)c1O (centres undefined)
[4]
  IC50: 3.38 µM (active)
Bcl-2-related protein A1
  IC50: > 20 µM (inactive)
[5]
  EC50: 13.3 µM (active)
[6]
  EC50: > 99 µM (inactive)
[7]
  IC50: 1.47 µM (active)

## Fc1cccc(-c2cc3nc(-c4ccccc4)cc(N4CCC5(CC4)OCCO5)n3n2)c1
CAAX prenyl protease 2 [8]
  AC50: 1.35 µM (active)
[9]
  IC50: > 100 µM (active)

## COc1ccc2cc(CCNC(=O)c3cccs3)c(O)nc2c1
HeLa
  AC50: 51 µM (active)

## CC(=O)OC1CCC2(C)C(COc3ccc4ccc(=O)oc4c3)C(C)(O)CCC2C1(C)C (centres undefined)
CAAX prenyl protease 2 [10]
  AC50: 18.1 µM (active)
CAAX prenyl protease 2 [8]
  AC50: 87.2 µM (active)

## Cc1cccnc1NC(=O)c1cccc(S(=O)(=O)N2CCCc3ccccc32)c1
Escherichia coli
  AC50: 23.6 µM (active)

## C#CC(C)(CC)NC(=O)c1cc2cccc(CC=C)c2oc1=O (centres undefined)
Escherichia coli
  AC50: 23.8 µM (active)

## Cn1nc(C(F)(F)F)cc1-c1ccc(/C=C(\C#N)C(=O)c2ccccc2)s1
[11]
  EC50: 21.1 µM (inconclusive)
[5]
  EC50: > 99 µM (inactive)
[12]
  EC50: 11.2 µM (inconclusive)
[6]
  EC50: > 99 µM (inactive)

## O=C(CC1(O)C(=O)N(C/C=C/c2ccccc2)c2ccccc21)c1ccccn1 (centres undefined)
CAAX prenyl protease 2 [10]
  AC50: 26.3 µM (active)
CAAX prenyl protease 2 [8]
  AC50: 59.1 µM (active)

## CN(C)c1ccc(Cc2ccc(N(C)C)cc2)cc1
[1]
  AC50: 70.8 µM (inconclusive)
[13]
  IC50: 73.2 µM (active)
Cytochrome P450 3A4
  AC50: 12.6 µM (inconclusive)
Nonstructural protein 1
  IC50: 36.6 µM (active)

## COc1ccc(C(CNC(=O)c2ccc3c(c2)CCC3)N(C)C)cc1 (centres undefined)
[2]
  EC50: 7.36 µM (active)
Mu-type opioid receptor
  EC50: 0.503 µM (active)
[14]
  EC50: 0.0053 µM (active)
[3]
  EC50: > 92.5 µM (inactive)

## Nc1ccc(Cc2ccc(N)c(Cl)c2)cc1Cl
[1]
  AC50: 79.4 µM (inconclusive)
